The source of these data is paper PMC8472597, “Neurosteroids: Structure-Uptake Relationships and Computational Modeling of Organic Anion Transporting Polypeptides (OATP)1A2” (Molecules, 2021).

Several values for one entry are separate records, joined by “and”; a condition that tells them apart may be missing. Equal entries are not always repeated. Where two headings read alike, the source gives them in different places.

In data set [1] the test system is MCF-7 cells. As to the kind of experiment: Concentration-dependent cellular uptake of neurosteroids into MCF-7 cells, Michaelis-Menten / Eadie-Hofstee analysis. In kind it is cell-based, human. The note with it: 5–200 µM; for Transport Mechanism Type 1 Vmax / Transport Mechanism Type 2 Vmax / Km: 30 min, 37 °C, Eadie-Hofstee plot analysis. Here is the method:
MCF-7 human breast adenocarcinoma cells (HTB-22; RRID: CVCL_0031) were purchased from the American Type Culture Collection (ATCC, Manassas, VA, USA). The cells were cultured in standard conditions (37 °C, 5% CO2) using Dulbecco’s modified Eagle medium (DMEM) supplemented with L-glutamine (2 mM), heat-inactivated fetal bovine serum (10%), penicillin (50 U/mL), and streptomycin (50 μg/mL). Once the cells reached 80% confluence in culture bottles (75 cm^2), the cells were washed twice with DPBS solution and harvested by trypsinization. All the following experiments were carried out with passage number 9–22.
Concentrations of neurosteroids (1–11) were determined by HPLC.
5.03 software (GraphPad Software, San Diego, CA, USA).

For data set [2], the system named is efflux transporters (P-gp, BCRP, MRPs). As to the kind of experiment: Cellular uptake into MCF-7 cells in the presence of efflux inhibitors (elacridar, MK-571). The note with it: 25 µM compound; for Efflux transporter substrate status: 50 µM elacridar and MK-571, pH 7.4, MCF-7 cells.
Experimental: The competitive uptake of 25 µM neurosteroids (1–11) in the presence of efflux inhibitors, 50 µM elacridar (P-gp and BCRP), and 50 µM MK-571 (MRPs) at pH 7.4 was carried out as described above, and the concentrations of studied compounds were analyzed with HPLC methods (below), calculated according to the standard curve, and normalized with protein concentration measured to each 24-well plate.
Concentrations of neurosteroids (1–11) were determined by HPLC. The apparatus was comprised of an Agilent 1100 binary pump (Agilent Technologies Inc., Wilmington, DE, USA), 1100 micro vacuum degasser, HP 1050 Auto-sampler, HP 1050 variable wavelength detector, operating at 225 nm. The chromatographic separations were achieved on a Supelco Supelcosil LC-Si analytical column (4.6 mm x 250 mm, 5 ml) (Supelco Inc., Bellefonte, PA, USA) by using isocratic elution of water containing 0.1% phosphoric acid and ACN with ratio of 30:70. The retention times of the compounds were ca. 4.3–4.4 min at the flow rate of 1.0 mL/min at room temperature. […] These HPLC methods were accurate (100 ± 10% of nominal concentration), precise (RSD% <10%), and selective (no interfering peaks) over the range 0.1–2 μM.
All data analyses, including Michaelis-Menten and Eadie-Hofstee analyses, were performed using GraphPad Prism v. […] Statistical differences between groups were tested using one-way ANOVA, followed by a two-tailed Tukey’s multiple comparison test and presented as mean ± SD, with statistically significant difference denoted by * p < 0.05, ** p < 0.01, *** p < 0.001.
Data set [3] has as its system MCF-7 cells. The note with it: human, 30 min, 25 µM.
Experimental: For the cellular uptake experiments, MCF-7 cells were seeded at the density of 1 × 10^5 cells/well onto 24-well plates a day before the experiments. Cellular uptake of neurosteroids (1–11) dissolved in DMSO and diluted with HBSS or MES buffer containing 5% 2-hydroxypropyl-β-cyclodextrin (HP-β-CD) was studied by incubating the cells with the pre-warmed compound solutions (250 μL) at the concentrations of 1–200 μM, at pH 7.4 (HBSS buffer), or in parallel at 5.0 (MES buffer), at 37 °C for 30 min (uptake was linear with all compounds up to 30 min). Subsequently, the cells were washed three times with ice-cold buffer and lysed with 250 μL of NaOH (0.1 M) for 60 min. The lysates were diluted with acetonitrile (ACN) with a ratio of 1:3 and centrifuged at 10,000× g for 10 min. The samples were analyzed by high-performance liquid chromatography (HPLC) methods described below. The concentrations of each compound were calculated from the standard curve and normalized to protein concentration in each 24-plate that was determined as a mean of three samples by Bio-Rad Protein Assay, based on the Bradford dye-binding method, using BSA as a standard protein and measuring the absorbance (595 nm) by multiplate reader (EnVision, Perkin Elmer, Inc., Waltham, MA, USA).
Concentrations of neurosteroids (1–11) were determined by HPLC. […]
The test system of a further data set is OATP1A2. Also noted: method as in PMID 31254566; Vmax: unit not given here. To be noted: reference substrate; cited from earlier work.
The mark [4] stands for this setting: read-out: Transport Mechanism Type 1 Km.
[5] abbreviates: read-out: Transport Mechanism Type 2 Km.

Regarding `C[C@@]12CCCC1C1CC[C@@H]3C[C@H](OC(=O)[C@@H](N)CCC(=O)O)CC[C@]3(C)C1CC2` (some centres unmarked) [Compound 3], in the data set on MCF-7 cells [1], the “Transport Mechanism Type 1 Vmax” value is 3.0 pmol/mg/min and 3.0 ± 0.4 pmol/mg/min; the “Transport Mechanism Type 2 Vmax” value was 8.2 pmol/mg/min and 8.2 ± 0.1 pmol/mg/min. Also, the Km in the data set with MCF-7 cells [1] (setting [4]) was 7.7 µM. Further, the Km with MCF-7 cells [1] (setting [5]) turned out to be 25.2 µM.
As for `CC(=O)[C@H]1CCC2C3CC[C@@H]4C[C@H](O)CC[C@]4(C)C3CC[C@@]21C` (stereo partly drawn) [Compound 1, 3α5β-Pregnanolone, reference compound], in data set [2], the “Efflux transporter substrate status” value was “substrates for all studied efflux transporters”. For the same compound, in the data set with MCF-7 cells [1], the “Transport Mechanism Type 1 Vmax” value is recorded as 26.3 ± 4.2 pmol/mg/min. In addition, the Km with MCF-7 cells [1] (setting [4]) is 55.4 µM.
`C[C@@]12CCCC1C1CC[C@@H]3C[C@H](NC(=O)CCCC(=O)O)CC[C@]3(C)C1CC2` (some centres unmarked) [Compound 9]: the “Transport Mechanism Type 1 Vmax” value in the data set with MCF-7 cells [1] is 5.5 ± 0.6 pmol/mg/min. For the same compound, the “Transport Mechanism Type 2 Vmax” value in the data set on MCF-7 cells [1] is 26.5 ± 3.0 pmol/mg/min. The Km in the data set on MCF-7 cells [1] (setting [4]) turned out to be 9.2 µM; with MCF-7 cells [1] (setting [5]), 67.8 µM.
Regarding `C[C@@]12CCCC1C1CC[C@@H]3C[C@H](NC(=O)[C@@H](N)CCC(=O)O)CC[C@]3(C)C1CC2` (some centres unmarked) [Compound 11], in the data set with MCF-7 cells [1], the “Transport Mechanism Type 1 Vmax” value worked out at 17.2 ± 2.1 pmol/mg/min. Moreover, in the data set on MCF-7 cells [1] (setting [4]), the Km stood at 24.2 µM.
Take `C[C@@]12CCCC1C1CC[C@@H]3C[C@H](NC(=O)[C@@H](N)CC(=O)O)CC[C@]3(C)C1CC2` (some centres unmarked) [Compound 8]: the “Cellular uptake at pH 5.5 compared to pH 7.4” value with MCF-7 cells [3] is given as “increased the uptake of all neurosteroids, except of compound 8”. In addition, in the data set on MCF-7 cells [1], the “Transport Mechanism Type 1 Vmax” value amounted to 8.0 ± 2.1 pmol/mg/min; the “Transport Mechanism Type 2 Vmax” value was 28.2 pmol/mg/min and 28.2 ± 0.1 pmol/mg/min. The Km with MCF-7 cells [1] (setting [4]) worked out at 10.9 µM. Also, in the data set with MCF-7 cells [1] (setting [5]), the Km stood at 42.8 µM.
For `C[C@]12CC[C@@H]3c4ccc(OS(=O)(=O)O)cc4CC[C@H]3[C@@H]1CCC2=O` [Compound E3S, Estrone-3-Sulfate], in the data set with OATP1A2, the Km is 6.5 µM, the Vmax was 66 ± 8.5 and the efficacy was 10.21.
For the compound `CC(C)(C)OC(=O)N[C@@H](CCC(=O)O)C(=O)N[C@@H]1CC[C@]2(C)C3CC[C@]4(C)CCCC4C3CC[C@@H]2C1` (some centres unmarked) [Compound 10], the Km in the data set on MCF-7 cells [1] (setting [4]) amounted to 23 µM; in the data set with MCF-7 cells [1] (setting [5]), 282 µM.
`C[C@@]12CCCC1C1CC[C@@H]3C[C@H](NC(=O)CCC(=O)O)CC[C@]3(C)C1CC2` (some centres unmarked) [Compound 6]: in the data set with MCF-7 cells [1], the “Transport Mechanism Type 1 Vmax” value came to 3.9 ± 0.5 pmol/mg/min and the “Transport Mechanism Type 2 Vmax” value is 10.2 ± 0.1 pmol/mg/min.
On to `CC(C)(C)OC(=O)N[C@@H](CO)C(=O)N[C@@H]1CC[C@]2(C)C3CC[C@]4(C)CCCC4C3CC[C@@H]2C1` (some centres unmarked) [Compound 5], for which, in the data set on MCF-7 cells [1], the “Transport Mechanism Type 1 Vmax” value is 5.3 pmol/mg/min and 5.3 ± 0.4 pmol/mg/min; the “Transport Mechanism Type 2 Vmax” value was 34.7 ± 7.7 pmol/mg/min. For the same compound, the Km with MCF-7 cells [1] (setting [4]) is 76.4 µM. For the same compound, in the data set with MCF-7 cells [1] (setting [5]), the Km was roughly 960 µM.
In the case of `CC(C)(C)OC(=O)N[C@@H](CC(=O)O)C(=O)N[C@@H]1CC[C@]2(C)C3CC[C@]4(C)CCCC4C3CC[C@@H]2C1` (some centres unmarked) [Compound 7], the “Transport Mechanism Type 1 Vmax” value with MCF-7 cells [1] was determined as 3.0 ± 0.1 pmol/mg/min.
As for `CC(=O)[C@H]1CCC2C3CC[C@@H]4C[C@H](OC(=O)[C@@H](N)CCC(=O)O)CC[C@]4(C)C3CC[C@@]21C` (some centres unmarked) [Compound 2], in data set [2], the “Efflux transporter substrate status” value is “efflux phenomenon can be abolished”. The “Cellular uptake in the presence of efflux inhibitors elacridar or MK-571” value in data set [2] (50 µM inhibitor, pH 7.4, MCF-7 cells) is “not affected”. Besides, the “Uptake profile over concentration (saturation of transporter)” value in the data set with MCF-7 cells [1] is “did not reach the saturation stage”.
For the compound `C[C@H]1CCC2C3CC[C@@H]4C[C@H](NC(=O)CC(=O)O)CC[C@]4(C)C3CC[C@@]21C` (some centres unmarked) [Compound 4], in the data set on MCF-7 cells [1], the “Transport Mechanism Type 1 Vmax” value is reported as 13.9 ± 6.7 pmol/mg/min. The Km in the data set on MCF-7 cells [1] (setting [4]) is roughly 233 µM.

As a reminder, the Km is the substrate concentration at which the rate is half of its maximum.
